Results taken from patent US20050084546A1, “Antioxidant and antiactinic tea plant products” (priority 2003, published 2005).

Legend:
[1] = tested on: fibroblasts and keratinocytes; assay: Free radical (ROS, xanthine oxidase/hypoxanthine) cytotoxicity inhibition, MTT dye method; assay type: cell-based; conditions: about 24 hours
From the text: Xanthine oxidase and hypoxanthine, referenced “XO” in Table 2, are employed together as a system to generate free radicals such as hydrogen peroxide, the hydroxyl radical and superoxide, as is known in the art. The free radical products of xanthine oxidase and hypoxanthine referenced “ROS” hereinafter, provide a test system which can be used to model the ability of test materials to protect biological organisms against the action of free radicals.
Test 2 determines the ability of the group of test materials employed in Test 1 to reduce ROS cytotoxicity to fibroblasts and keratinocytes. Cells are seeded in 96-well plates and grown for two days. They are then exposed for about 24 hours to hypoxanthine at 100 □ g/ml and to various concentrations of xanthine oxidase, ranging, as shown in Table 2's column headers, from 2 mU/ml to 40 mU/ml. Fresh culture medium is added after exposure to ROS and cell death is assessed by the conventional MTT dye method wherein light absorbence at 570 nm is measured. Only living cells take up the MTT dye which absorbs at the measurement wavelength. The cytotoxicity test results, using the quantity of the test materials listed to inhibit free radical toxicity, are set forth in Table 2, below. The control is an aliquot of water.

Cytochrome C = assay: In vitro cytochrome C oxidation-reduction assay in the presence of isolated neutrophils (antioxidant activity); assay type: biochemical
From the text: An in vitro cytochrome C oxidation-reduction assay conducted in the presence of isolated neutrophils is used to assess the antioxidant activity of a group of test materials comprising aqueous extracts of the inventive mixed tea blend prepared by the method of Example 3 having the concentrations indicated in Table 1, below, and known antioxidant materials, namely green tea extract, white tea extract, grape polyphenols and vitamin E, as controls. Reduction of cytochrome C by free radicals causes an increase in light absorbence at 550 nm. Cytochrome C is an ubiquitous iron-containing cellular respiratory enzyme. Singlet oxygen prevents free radical reduction and the consequent increase in light absorbance. The oxidation-reduction assay determines the ability of the test materials to control the activity of chemically generated singlet oxygen, permitting the reductive free radicals to induce increased light absorbence, which is measured.
The assay system employed, determination of the impact of singlet oxygen on a biological entity, cytochrome C, is believed to be a useful model of in vivo activity. However, the invention is not dependent upon this or any other theory.

Fibroblasts = assay: UV cytotoxicity assay, cell count in hemocytometer; assay type: cell-based
Description: Fibroblasts, grown in Dulbecco medium (DM) supplemented with fetal calf serum are plated in 24 well plates at a density of 20,000 cells per well. Twelve hours after plating, fresh DM with fetal calf serum is added. After an additional 12 hours various test materials as set forth in Table 3, are added to the wells. Six, twelve and twenty four hours later, cultures are exposed to UV at varying low and high doses. The low dose is chosen to stimulate growth and cause a hyper-proliferative response, while the higher dose is chosen to induce cytotoxic effects. After 72 and 144 hours, cells are trypsinized, and counted in a hemocytometer chamber. The cytotoxicity test results using the indicated quantities of the test materials to inhibit free radical toxicity, are set forth in Table 3, below. The control is an aliquot of water.

[2] = tested on: stratum corneum (skin cell turnover); assay: In vivo inhibition of UV-induced skin cell renewal, dansyl chloride staining technique; design: species or system human
Description: The dansyl chloride staining technique is used to measure rates of skin cell turnover, under normal conditions and under conditions of exposure to ultraviolet light with and without protection from various test materials.
Summarizing known procedural methods, the stratum corneum is stained with fluorescent dansyl chloride by applying semi-occlusive patches of 5% dansyl chloride milled into petrolatum for 24 hours. After assuring that the stain is completely taken up by the stratum corneum layers by viewing under a quartz mineral lamp, subjects are instructed to apply water or the test product. Skin sites are treated with the various doses of UV indicated in MED in Table 6A, below, 3 days prior to and 1 day after patching with dansyl chloride. Visual inspection of the sites under UV lamp is made until the stain disappears reflecting the time required for complete turnover of the full thickness stratum corneum. Changes in cell renewal due to test material effects and UV exposure can be expressed as a percentage change compared to water-treated or untreated controls.

Substance: vitamin E
- Cell Survival after Exposure to ROS Free Radicals ([1]; XO 2 mU, hypoxanthine […]): 89%
- Cell Survival after Exposure to ROS Free Radicals ([1]; XO 10 mU, hypoxanthine 100 µg/ml): 47%
- Cell Survival after Exposure to ROS Free Radicals ([1]; XO 20 mU, hypoxanthine 100 µg/ml): 25%
- Cell Survival after Exposure to ROS Free Radicals ([1]; XO 40 MU, hypoxanthine […]): 13%
- Inhibition of Cytochrome C Oxidation (Cytochrome C; test material 0.1 μg/ml): 21%
- Inhibition of Cytochrome C Oxidation (Cytochrome C; test material 1.0 μg/ml): 15%
- Inhibition of Cytochrome C Oxidation (Cytochrome C; test material 10 μg/ml): 11%
- Inhibition of Cytochrome C Oxidation (Cytochrome C; test material 25 μg/ml): 14%
- Cell Survival after Exposure to UV (Fibroblasts; UV 1 mJ/cm2): 65%
- Cell Survival after Exposure to UV (Fibroblasts; UV 2 mJ/cm2): 42%
- Cell Survival after Exposure to UV (Fibroblasts; UV 5 mJ/cm2): 35%
- Cell Survival after Exposure to UV (Fibroblasts; UV 10 mJ/cm2): 20%
- Hyperproliferative Effect ([2]; decrease in turnover time with UV versus no UV): 41.9%
- Skin cell turnover, No UV Exposure ([2]; time for dansyl chloride stain to disappear (Table 5 gives turnover in days), no UV): 18.1
- Skin cell turnover, UV Exposure ([2]; time for dansyl chloride stain to disappear (Table 5 gives turnover in days), with UV exposure): 10.5
- Protection against UV-induced hyperproliferation (in words) ([2]; topical, UV exposure): no protection
